This test deals with T1, KDR (VEGFR2) (Homo sapiens, UniProt P35968).
T1 construct: purchased Thermo Fisher Scientific (Life Technologies) SelectScreen
Nature of the test: SelectScreen Z'LYTE. The test is classed as biochemical. The method in brief: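 NU5455 was profiled across the SelectScreen Broad panel of kinase activity and binding assays. Z'LYTE reactions such as CSF1R ran at apparent Km ATP, while the Adapta CAMK1 assay used ATP listed as 10. Values are given as percent.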

Structures are written as SMILES.

Experimental findings from publication PMC6934184, “Selective DNA-PKcs inhibition extends the therapeutic index of localized radiotherapy and chemotherapy” (The Journal of Clinical Investigation, 2019) are described below.

T1 sequence (P35968 20-1356): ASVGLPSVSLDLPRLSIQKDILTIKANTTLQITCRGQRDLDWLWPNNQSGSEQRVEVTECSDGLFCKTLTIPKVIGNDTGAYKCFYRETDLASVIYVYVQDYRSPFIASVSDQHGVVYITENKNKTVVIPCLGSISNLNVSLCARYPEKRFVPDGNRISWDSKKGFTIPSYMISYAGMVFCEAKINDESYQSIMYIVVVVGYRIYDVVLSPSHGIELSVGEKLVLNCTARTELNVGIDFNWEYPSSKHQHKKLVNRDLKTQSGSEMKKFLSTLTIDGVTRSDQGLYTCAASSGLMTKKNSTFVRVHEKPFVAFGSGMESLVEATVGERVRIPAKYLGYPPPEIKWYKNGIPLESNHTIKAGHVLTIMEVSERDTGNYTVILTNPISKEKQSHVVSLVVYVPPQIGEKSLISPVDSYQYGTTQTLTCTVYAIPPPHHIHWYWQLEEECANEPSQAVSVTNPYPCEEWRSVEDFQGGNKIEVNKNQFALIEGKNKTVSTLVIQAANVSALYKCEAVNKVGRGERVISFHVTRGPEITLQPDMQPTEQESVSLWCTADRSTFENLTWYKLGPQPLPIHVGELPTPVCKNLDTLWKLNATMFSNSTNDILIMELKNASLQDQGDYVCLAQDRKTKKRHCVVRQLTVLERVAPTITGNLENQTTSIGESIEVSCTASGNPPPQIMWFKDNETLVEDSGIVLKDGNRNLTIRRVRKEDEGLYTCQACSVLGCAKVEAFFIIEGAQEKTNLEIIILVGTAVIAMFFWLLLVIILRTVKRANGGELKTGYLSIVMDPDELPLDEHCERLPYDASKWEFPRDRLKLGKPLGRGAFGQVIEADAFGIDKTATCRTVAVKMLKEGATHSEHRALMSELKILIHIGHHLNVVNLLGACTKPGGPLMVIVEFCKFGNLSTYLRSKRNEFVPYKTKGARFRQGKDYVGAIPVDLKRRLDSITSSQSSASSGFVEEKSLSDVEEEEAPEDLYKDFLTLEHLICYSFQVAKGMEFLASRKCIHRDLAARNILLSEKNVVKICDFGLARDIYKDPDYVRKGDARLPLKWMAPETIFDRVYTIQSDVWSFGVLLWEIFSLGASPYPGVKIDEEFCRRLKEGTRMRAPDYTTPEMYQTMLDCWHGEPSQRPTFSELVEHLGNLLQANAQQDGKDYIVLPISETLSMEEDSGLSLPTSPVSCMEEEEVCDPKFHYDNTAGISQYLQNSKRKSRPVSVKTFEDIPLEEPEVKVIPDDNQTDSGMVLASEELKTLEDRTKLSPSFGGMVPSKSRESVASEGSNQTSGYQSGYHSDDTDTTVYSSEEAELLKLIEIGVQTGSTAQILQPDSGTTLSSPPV

In the case of `CN(C(=O)CN1CCOCC1)c1ccc2sc3c(-c4cccc5c(=O)cc(N6CC7CCC(C6)O7)oc45)cccc3c2c1` [NU5455], the inhibition at 1 µM is 1.8%.
